In US10722514B2 (FLX Bio, Inc., priority 2017, dated 2020):
Structures can show the parent of a compound that is named as a salt. Where two headings read alike, the source gives them in different places.

Target: T1, recombinant full-length USP7 (Homo sapiens, UniProt Q93009)
T1 construct: A 25 μl reaction volume containing recombinant full-length USP7 (62 pM)
Experiment: USP7-mediated ubiquitin-rhodamine cleavage assay
Type: biochemical
Conditions: recombinant full-length USP7 62 pM, ubiquitin-rhodamine 100 nM, 1 hour reaction at room temperature
Method in brief: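 Compounds are first incubated with 62 pM enzyme for 30 min at room temperature in pH 7.3 HEPES buffer containing TCEP and BSA. Cleavage of 100 nM ubiquitin-rhodamine proceeds for 1 h before an acid quench, and IC50 is derived from fluorescence.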

[1] = 30-minute incubation with compound, read-out: Potency: USP7 IC50
[2] = 30-minute pre-incubation, read-out: Potency (USP7 IC50)
[3] = 30-minute incubation, read-out: Potency (USP7 IC50)

T1 sequence (Q93009 whole entry): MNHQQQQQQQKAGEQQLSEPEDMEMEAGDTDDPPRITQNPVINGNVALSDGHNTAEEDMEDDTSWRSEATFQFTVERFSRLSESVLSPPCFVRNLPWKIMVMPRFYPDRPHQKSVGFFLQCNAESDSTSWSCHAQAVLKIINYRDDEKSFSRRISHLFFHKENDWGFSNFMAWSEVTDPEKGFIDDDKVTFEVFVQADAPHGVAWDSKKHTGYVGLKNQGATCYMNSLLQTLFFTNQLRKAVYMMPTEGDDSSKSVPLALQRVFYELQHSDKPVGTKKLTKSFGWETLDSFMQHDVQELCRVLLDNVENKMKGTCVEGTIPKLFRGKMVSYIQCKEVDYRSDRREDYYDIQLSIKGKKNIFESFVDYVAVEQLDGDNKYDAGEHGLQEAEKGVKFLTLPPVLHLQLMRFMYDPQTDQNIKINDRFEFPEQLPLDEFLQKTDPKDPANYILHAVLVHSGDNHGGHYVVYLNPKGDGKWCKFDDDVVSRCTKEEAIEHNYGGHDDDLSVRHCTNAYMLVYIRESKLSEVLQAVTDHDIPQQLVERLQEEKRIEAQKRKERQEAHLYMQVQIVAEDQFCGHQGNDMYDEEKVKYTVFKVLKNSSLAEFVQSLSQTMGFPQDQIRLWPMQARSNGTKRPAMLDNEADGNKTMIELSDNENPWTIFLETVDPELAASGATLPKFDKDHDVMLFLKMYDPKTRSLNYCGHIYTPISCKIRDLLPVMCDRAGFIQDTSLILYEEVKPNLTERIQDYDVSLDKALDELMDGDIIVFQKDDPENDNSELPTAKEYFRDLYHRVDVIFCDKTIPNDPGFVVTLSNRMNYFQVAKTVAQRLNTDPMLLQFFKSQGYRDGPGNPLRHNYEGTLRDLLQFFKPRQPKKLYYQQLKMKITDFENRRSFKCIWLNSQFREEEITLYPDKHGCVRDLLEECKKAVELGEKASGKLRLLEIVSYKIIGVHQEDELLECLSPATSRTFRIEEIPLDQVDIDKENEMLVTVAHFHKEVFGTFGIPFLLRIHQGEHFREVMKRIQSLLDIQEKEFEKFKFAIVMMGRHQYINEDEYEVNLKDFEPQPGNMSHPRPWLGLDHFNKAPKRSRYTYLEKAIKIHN

Compound	IC50 [1] [nM]	IC50 [2] [nM]	also measured
Cc1cc(Cl)cc(-c2ccnc3cc(Cn4c(=O)ccn(CC(F)(F)F)c4=O)sc23)c1O[C@H]1CCC(C)(C)NC1 [Example 286, 3-[[7-[5-chloro-2-[[(3S)-6,6-dimethyl-3-piperidyl]oxy]-3-methyl-phenyl]thieno[3,2-b]pyridin-2-yl]methyl]-1-(2,2,2-trifluoroethyl)pyrimidine-2,4-dione; 2,2,2-trifluoroacetic acid]	< 1000		
CCO[C@H]1CNC[C@H]1Oc1c(C)cc(Cl)cc1-c1ccnc2cc(Cn3c(=O)ccn(CC(F)(F)F)c3=O)sc12 [Example 604, 3-[[7-[5-chloro-2-[(3R,4S)-4-ethoxypyrrolidin-3-yl]oxy-3-methyl-phenyl]thieno[3,2-b]pyridin-2-yl]methyl]-1-(2,2,2-trifluoroethyl)pyrimidine-2,4-dione]		< 1000	
Cc1cc(Cl)cc(-c2ccnc3cc(CN4C(=O)CCC4=O)sc23)c1O[C@H]1CNCC[C@@H]1F [Example 425, 1-[[7-[5-chloro-2-[[(3S,4S)-4-fluoro-3-piperidyl]oxy]-3-methyl-phenyl]thieno[3,2-b]pyridin-2-yl]methyl]pyrrolidine-2,5-dione]		< 1000	
Cc1cc(Cl)cc(-c2ccnc3cc(Cn4c(=O)ccn(C)c4=O)sc23)c1O[C@H]1CCCNC1 [Example 161, (S)-3-((7-(5-Chloro-3-methyl-2-(piperidin-3-yloxy)phenyl)thieno[3,2-b]pyridin-2-yl)methyl)-1-methylpyrimidine-2,4(1H,3H)-dione]	< 1000		
Cc1cc(Cl)cc(-c2ccnc3cc(Cn4c(=O)ccn(CC(F)(F)F)c4=O)sc23)c1OC1CC(N2CCC[C@H]2CF)C1 (stereo partly drawn) [Example 687, 3-[[7-[5-chloro-2-[3-[(2S)-2-(fluoromethyl)pyrrolidin-1-yl]cyclobutoxy]-3-methyl-phenyl]thieno[3,2-b]pyridin-2-yl]methyl]-1-(2,2,2-trifluoroethyl)pyrimidine-2,4-dione; 2,2,2-trifluoroacetic acid]			IC50 [3]: < 1000 nM
Cc1cc(Cl)cc(-c2ccnc3cc(CN4C(=O)CCC4=O)ccc23)c1O[C@@H]1CNC[C@@H]1F [Example 100, 1-((4-(5-Chloro-2-(((3R,4S)-4-fluoropyrrolidin-3-yl)oxy)-3-methylphenyl)quinolin-7-yl)methyl)pyrrolidine-2,5-dione]	10000 to 30000		
Cc1cc(Cl)cc(-c2ccnc3cc(CN4C(=O)CCC4=O)sc23)c1O[C@@H]1C[C@H]2CC[C@@H](C1)N2 [Example 215, 1-((7-(2-(((1R,3s,5S)-8-Azabicyclo[3.2.1]octan-3-yl)oxy)-5-chloro-3-methylphenyl)thieno[3,2-b]pyridin-2-yl)methyl)pyrrolidine-2,5-dione]	< 1000		
N#Cc1cc(-c2ccnc3cc(CN4C(=O)CCC4=O)sc23)c(O[C@@H]2CNC[C@@H]2F)cc1F [Example 135, 5-(2-((2,5-Dioxopyrrolidin-1-yl)methyl)thieno[3,2-b]pyridin-7-yl)-2-fluoro-4-(((3R,4S)-4-fluoropyrrolidin-3-yl)oxy)benzonitrile]	1000 to 10000		
COC(=O)N1CC[C@@H](Oc2c(C)cc(Cl)cc2-c2ccnc3cc(Cn4c(=O)ccn(CC(F)(F)F)c4=O)sc23)[C@@H](C)C1 [Example 643, methyl (3S,4R)-4-[4-chloro-2-[2-[[2,6-dioxo-3-(2,2,2-trifluoroethyl)pyrimidin-1-yl]methyl]thieno[3,2-b]pyridin-7-yl]-6-methyl-phenoxy]-3-methyl-piperidine-1-carboxylate]		< 1000	
Cc1cc(Cl)cc(-c2ncnc3cc(Cn4c(=O)ccn(CC(F)(F)F)c4=O)sc23)c1O[C@@H]1CNC[C@@H]1C [Example 595, 3-[[4-[5-chloro-3-methyl-2-[(3S,4S)-4-methylpyrrolidin-3-yl]oxy-phenyl]thieno[3,2-d]pyrimidin-6-yl]methyl]-1-(2,2,2-trifluoroethyl)pyrimidine-2,4-dione]		< 1000	
Cc1cc(Cl)cc(-c2ccnc3cc(CN4C(=O)C5C(C4=O)C5(C)C)sc23)c1OC1CN(C)CC1(C)F (centres unmarked) [Example 375, 3-[[7-[5-chloro-2-(4-fluoro-1,4-dimethyl-pyrrolidin-3-yl)oxy-3-methyl-phenyl]thieno[3,2-b]pyridin-2-yl]methyl]-6,6-dimethyl-3-azabicyclo[3.1.0]hexane-2,4-dione dihydrochloride]	< 1000		
COC[C@@H]1CCCN1C1CC(Oc2c(C)cc(Cl)cc2-c2ccnc3cc(Cn4c(=O)ccn(CC(F)(F)F)c4=O)sc23)C1 (stereo partly drawn) [Example 686, 3-[[7-[5-chloro-2-[3-[(2S)-2-(methoxymethyl)pyrrolidin-1-yl]cyclobutoxy]-3-methyl-phenyl]thieno[3,2-b]pyridin-2-yl]methyl]-1-(2,2,2-trifluoroethyl)pyrimidine-2,4-dione; 2,2,2-trifluoroacetic acid]			IC50 [3]: < 1000 nM
Cc1cc(Cl)cc(-c2ccnc3cc(Cn4c(=O)ccn(CC(F)(F)F)c4=O)sc23)c1OC1CCOCC1 [Example 670]			IC50 [3]: < 1000 nM
Cc1cc(Cl)cc(-c2ccnc3cc(Cn4c(=O)ccn(CCC(F)(F)F)c4=O)sc23)c1O[C@H]1CCCNC1 [Example 583, 3-[[7-[5-chloro-3-methyl-2-[[(3S)-3-piperidyl]oxy]phenyl]thieno[3,2-b]pyridin-2-yl]methyl]-1-(3,3,3-trifluoropropyl)pyrimidine-2,4-dione]		< 1000	
Cc1cc(Cl)cc(-c2ccnc3cc(CN4C(=O)N(C)C(C)(C)C4=O)sc23)c1O[C@@H]1CNC[C@@H]1F [Example 155, 3-((7-(5-Chloro-2-(((3R,4S)-4-fluoropyrrolidin-3-yl)oxy)-3-methylphenyl)thieno[3,2-b]pyridin-2-yl)methyl)-1,5,5-trimethylimidazolidine-2,4-dione]	< 1000		
Cc1cc(Cl)cc(-c2ccnc3cc(Cn4c(=O)ccn(CC(F)(F)F)c4=O)sc23)c1OC1CNCC[C@@]1(C)F (stereo partly drawn) [Example 405, 3-[[7-[5-chloro-2-[[(4R)-4-fluoro-4-methyl-3-piperidyl]oxy]-3-methyl-phenyl]thieno[3,2-b]pyridin-2-yl]methyl]-1-(2,2,2-trifluoroethyl)pyrimidine-2,4-dione; 2,2,2-trifluoroacetic acid]		< 1000	
Cc1cc(Cl)cc(-c2ccnc3cc(Cn4c(=O)ccn(C5CC5)c4=O)sc23)c1O[C@H]1CCCNC1 [Example 285, 3-[[7-[5-chloro-3-methyl-2-[[(3S)-3-piperidyl]oxy]phenyl]thieno[3,2-b]pyridin-2-yl]methyl]-1-cyclopropyl-pyrimidine-2,4-dione; 2,2,2-trifluoroacetic acid]	< 1000		
Cc1cc(Cl)cc(-c2ccnc3cc(CN4C(=O)C5CCC5C4=O)sc23)c1O[C@H]1CCCNC1 (stereo partly drawn) [Example 297, 3-[[7-[5-chloro-3-methyl-2-[[(3S)-3-piperidyl]oxy]phenyl]thieno[3,2-b]pyridin-2-yl]methyl]-3-azabicyclo[3.2.0]heptane-2,4-dione; 2,2,2-trifluoroacetic acid]	< 1000		
Cc1cc(C#N)cc(-c2ccnc3cc(CN4C(=O)CCC4=O)sc23)c1O[C@@H]1CNC[C@@H]1F [Example 97, 3-(2-((2,5-Dioxopyrrolidin-1-yl)methyl)thieno[3,2-b]pyridin-7-yl)-4-(((3R,4S)-4-fluoropyrrolidin-3-yl)oxy)-5-methylbenzonitrile]	< 1000		
Cc1cc(Cl)cc(-c2ncnc3cc(CN4C(=O)COC4=O)sc23)c1OC1CCNCC1 [Example 225, 3-((4-(5-Chloro-3-methyl-2-(piperidin-4-yloxy)phenyl)thieno[3,2-d]pyrimidin-6-yl)methyl)oxazolidine-2,4-dione]	1000 to 10000		
O=C1CCC(=O)N1Cc1cc2nccc(-c3cc(Cl)cc(Cl)c3O[C@@H]3CNC[C@@H]3F)c2s1 [Example 123, 1-((7-(3,5-Dichloro-2-(((3R,4S)-4-fluoropyrrolidin-3-yl)oxy)phenyl)thieno[3,2-b]pyridin-2-yl)methyl)pyrrolidine-2,5-dione]	< 1000		
Cc1cc(Cl)cc(-c2ccnc3cc(Cn4c(=O)ccn(C)c4=O)sc23)c1O[C@@H]1CNCC(C)(C)C1 [Example 536, 3-[[7-[5-chloro-2-[[(3S)-5-dimethyl-3-piperidyl]oxy]-3-methyl-phenyl]thieno[3,2-b]pyridin-2-yl]methyl]-1-methyl-pyrimidine-2,4-dione; 2,2,2-trifluoroacetic acid]		< 1000	
Cc1cc(Cl)cc(-c2ccnc3cc(Cn4c(=O)ccn(C)c4=O)sc23)c1O[C@@H]1CNC[C@@H](F)C1 [Example 496, 3-[[7-[5-chloro-2-[[(3S,5S)-5-fluoro-3-piperidyl]oxy]-3-methyl-phenyl]thieno[3,2-b]pyridin-2-yl]methyl]-1-methyl-pyrimidine-2,4-dione]		< 1000	
Cc1cc(Cl)cc(-c2ncnc3cc(Cn4c(=O)ccn(CC(F)(F)F)c4=O)sc23)c1O[C@@H]1CNC[C@@H]1F [Example 525, 3-[[4-[5-chloro-2-[(3R,4S)-4-fluoropyrrolidin-3-yl]oxy-3-methyl-phenyl]thieno[3,2-d]pyrimidin-6-yl]methyl]-1-(2,2,2-trifluoroethyl)pyrimidine-2,4-dione]		< 1000	
CCN1CC[C@@H](Oc2c(C)cc(Cl)cc2-c2ccnc3cc(CN4C(=O)CCC4=O)sc23)[C@@H](C)C1 [Example 307, 1-[[7-[5-chloro-2-[[(3S,4R)-1-ethyl-3-methyl-4-piperidyl]oxy]-3-methyl-phenyl]thieno[3,2-b]pyridin-2-yl]methyl]pyrrolidine-2,5-dione]	< 1000		
Cc1cc(Cl)cc(-c2ccnc3cc(Cn4c(=O)ccn(CC(F)(F)F)c4=O)sc23)c1OC1CC2CNC1C2 (centres unmarked) [Example 540, 3-[[7-[2-(3-azabicyclo[2.2.1]heptan-5-yloxy)-5-chloro-3-methyl-phenyl]thieno[3,2-b]pyridin-2-yl]methyl]-1-(2,2,2-trifluoroethyl)pyrimidine-2,4-dione]		< 1000	
